This note sets out measurements from patent US9670514B2, “Method for producing polysaccharide” (SANYO CHEMICAL INDUSTRIES, LTD., priority 2011, dated 2017).

One experiment has as its target T1, chondroitin synthase (Pasteurella multocida, UniProt Q9CMP0).
T1 construct: FLAG; made in house; host or cells: Escherichia coli SURE, as in Preparation 1
Description: Inhibitory concentration IC50 against chondroitin synthase. The experiment is classed as biochemical. The method, then: Hyaluronan synthase aqueous solution (B-1) obtained in Preparation 1 was dissolved to a concentration of 1.5 U/mL in 940 μL of aqueous solution 1 (50 mM phosphate buffer (pH of 7.5, 25° C.) containing 5 mM magnesium chloride and 0.05 mM sodium uridine diphosphate) in a 1.5 mL-tube. The tube was allowed to stand at 40° C. for 20 minutes in a constant temperature water bath. To the tube was added 50 μL of temperature-adjusted (40° C.) substrate solution [1-1] (a solution obtained by dissolving uridine diphosphate-glucuronic acid sodium salt and uridine diphosphate-N-acetylglucosamine both to a concentration of 20 mM in buffer solution B (50 mM phosphate buffer, pH of 7.5, 25° C.)). Thereby, enzyme reaction solution (I-1) was obtained. […] The supernatant (80 μL) was analyzed by HPLC under the following conditions, and the peak areas of hyaluronan were recorded. […]
The inhibitory concentration IC50 was measured in a similar manner as in “Measurement of the inhibitory concentration IC50 against hyaluronan synthase”, except that “chondroitin synthase aqueous solution (B-2) obtained in Preparation 11” was used in place of “hyaluronan synthase aqueous solution (B-1) obtained in Preparation 1”, “substrate solution [1-2] […]
The inhibitory concentration IC50 was also determined in a similar manner, except that the amount of chondroitin synthase aqueous solution (B-2) was changed from 1.5 U/mL to 45 U/mL.

Another experiment addresses T2, hyaluronan synthase (Streptococcus pyogenes, UniProt P0C0H0, K60N).
T2 construct: FLAG; made in house; host or cells: Escherichia coli SURE, plasmid pKK223-3
T2 sequence (P0C0H0 1-419 K60N): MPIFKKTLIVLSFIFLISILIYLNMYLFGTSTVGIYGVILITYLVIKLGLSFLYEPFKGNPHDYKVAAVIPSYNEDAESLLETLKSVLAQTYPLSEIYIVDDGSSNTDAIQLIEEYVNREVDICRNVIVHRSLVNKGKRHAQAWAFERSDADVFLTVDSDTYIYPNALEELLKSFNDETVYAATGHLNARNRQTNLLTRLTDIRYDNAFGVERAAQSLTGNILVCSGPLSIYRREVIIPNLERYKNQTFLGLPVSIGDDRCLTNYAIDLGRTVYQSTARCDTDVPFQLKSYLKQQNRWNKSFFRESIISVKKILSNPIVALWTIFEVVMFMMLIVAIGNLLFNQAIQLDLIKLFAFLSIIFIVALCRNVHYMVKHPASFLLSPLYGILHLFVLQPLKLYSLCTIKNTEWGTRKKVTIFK
Description: Inhibitory concentration IC50 of uridine diphosphate against hyaluronan synthase (HPLC of hyaluronan). Type of experiment: biochemical, Streptococcus equisimilis. The note with it: hyaluronan synthase (B-1) 1.5 U/mL, 40° C., pH 7.5. As for the experimental part:
An enzyme reaction solution (I) containing specific amounts of polysaccharide synthase (B), ribonucleoside diphosphate-monosaccharide (A), ribonucleoside diphosphate, pH adjuster (K), and water is prepared, which is adjusted to a specific temperature and a specific pH. […]
A portion (e.g., 100 μL) of the enzyme reaction solution (I) prepared is extracted immediately after preparation and at certain time intervals (e.g., 5 min). […] Using liquid chromatography (hereinafter abbreviated as HPLC), the amount of polysaccharide in each extracted reaction solution is quantitated. An initial enzyme reaction velocity v (M/s) is calculated from the difference ΔP (ΔP=Ph−P0) in peak areas and a calibration curve based on the peak areas of the polysaccharide, wherein P0 is the peak area immediately after preparation of the enzyme reaction solution (I), and Ph is the peak area after h hour(s) from preparation. […]

Turning to `O=c1ccn([C@@H]2O[C@H](COP(=O)(O)OP(=O)(O)O)[C@@H](O)[C@H]2O)c(=O)[nH]1` [uridine diphosphate], the IC50 was determined as 85 µM on chondroitin synthase and 110 µM on hyaluronan synthase.

One may read the IC50 as the concentration that gives 50% inhibition.
